Laboratory results: patent US6423689B1, “Peptidyl calcium channel blockers” (Warner-Lambert Company, priority 1997, dated 2002)

Target: T1, N-type Ca2+ channels in IMR-32 cells (Homo sapiens, UniProt Q00975)
T1 construct: host or cells: IMR-32 cells, differentiated with dibutyryl cAMP and bromodeoxyuridine
Test: Inhibition of N-type calcium flux in IMR-32 cells (Indo-1 fluorescence, nitrendipine present)
Assay type: cell-based
Conditions: for IC50: IMR-32 cells, 5 μM nitrendipine, K+ depolarization; for inhibition at 1 µM / inhibition at 10 µM: IMR-32
Method: Measurement of N-type Ca^2+ Channel Blocking Potencies of Compounds in IMR-32 Cells Using the Fluorescent Ca^2+ Indicator Indo-1
IMR-32 cells are a human tumoral cell line of neural origin. […] Calcium flux into these cells may be induced by stimulation with elevated potassium concentrations. The L-channel component of calcium flux may be blocked by adding 5 μM nitrendipine. The remaining component of calcium entry into the IMR-32 cells is due to calcium flux through N-type calcium channels. Intracellular calcium concentrations are measured using the fluorescent calcium indicator Indo 1. The effect of drug concentration on calcium uptake is studied.
The IMR-32 cell line was obtained from the American Type Culture Collection (Rockville, Md.). Cells were grown in Eagle's Minimum Essential Medium with Eagle's salts supplemented with 10% fetal bovine serum, 2 mM L-Gln and antibiotic/antimycotic mixture (Gibco). […] After 7 to 13 days of differentiation, cells were detached using 0.5 mM EDTA and loaded with 5 μM Indo-1 acetoxymethyl ester (Molecular Probes, Eugene, OR) at […] for 45 minutes. Loaded cells were washed twice, resuspended (˜10^7 cells/mL) in assay buffer (10 mM HEPES/Tris pH 7.4 in Hank's Balanced Salt Solution without bicarbonate or phenol red containing 0.5% bovine serum albumin) and kept on ice until use. Fluorescence measurements were carried out in a Photon Technology International (PTI, South Brunswick, N.J.) Model RF-F3004 spectrofluorometer with dual emission monochromators using excitation at 350 nm and emission at 400 and 490 nm. The instrument was equipped with a thermostated cuvette holder with stirring capabilities as well as with a computer-controlled pump which allowed for reagent addition during measurement. Instrument control and data collection was done by PTI's OSCAR software running on an IBM compatible computer. […] Samples were incubated for 10 minutes at 30° C. and then aliquoted into three 10×10 mm disposable acrylic cuvettes. Emission signals at 400 and 490 nm were acquired from each cuvette at 30° C. for 50 seconds. At 20 seconds after the start of reading, cells were depolarized by the addition of 160 μL of stimulation solution (1M KCl, 68 mM CaCl2) to the cuvette via the computer-controlled pump. Ratio of dual emission signals (400 nm/490 nm), which is proportional to intracellular Ca^2+ concentration, was plotted against time, and the difference between maximal response after stimulation and basal value (before stimulation) was determined. Values obtained in this way were plotted as a function of drug concentration. IC50 values of test compounds were calculated by fitting a four-parameter logistic function to the data using the least squares method.

T1 sequence (Q00975 whole entry): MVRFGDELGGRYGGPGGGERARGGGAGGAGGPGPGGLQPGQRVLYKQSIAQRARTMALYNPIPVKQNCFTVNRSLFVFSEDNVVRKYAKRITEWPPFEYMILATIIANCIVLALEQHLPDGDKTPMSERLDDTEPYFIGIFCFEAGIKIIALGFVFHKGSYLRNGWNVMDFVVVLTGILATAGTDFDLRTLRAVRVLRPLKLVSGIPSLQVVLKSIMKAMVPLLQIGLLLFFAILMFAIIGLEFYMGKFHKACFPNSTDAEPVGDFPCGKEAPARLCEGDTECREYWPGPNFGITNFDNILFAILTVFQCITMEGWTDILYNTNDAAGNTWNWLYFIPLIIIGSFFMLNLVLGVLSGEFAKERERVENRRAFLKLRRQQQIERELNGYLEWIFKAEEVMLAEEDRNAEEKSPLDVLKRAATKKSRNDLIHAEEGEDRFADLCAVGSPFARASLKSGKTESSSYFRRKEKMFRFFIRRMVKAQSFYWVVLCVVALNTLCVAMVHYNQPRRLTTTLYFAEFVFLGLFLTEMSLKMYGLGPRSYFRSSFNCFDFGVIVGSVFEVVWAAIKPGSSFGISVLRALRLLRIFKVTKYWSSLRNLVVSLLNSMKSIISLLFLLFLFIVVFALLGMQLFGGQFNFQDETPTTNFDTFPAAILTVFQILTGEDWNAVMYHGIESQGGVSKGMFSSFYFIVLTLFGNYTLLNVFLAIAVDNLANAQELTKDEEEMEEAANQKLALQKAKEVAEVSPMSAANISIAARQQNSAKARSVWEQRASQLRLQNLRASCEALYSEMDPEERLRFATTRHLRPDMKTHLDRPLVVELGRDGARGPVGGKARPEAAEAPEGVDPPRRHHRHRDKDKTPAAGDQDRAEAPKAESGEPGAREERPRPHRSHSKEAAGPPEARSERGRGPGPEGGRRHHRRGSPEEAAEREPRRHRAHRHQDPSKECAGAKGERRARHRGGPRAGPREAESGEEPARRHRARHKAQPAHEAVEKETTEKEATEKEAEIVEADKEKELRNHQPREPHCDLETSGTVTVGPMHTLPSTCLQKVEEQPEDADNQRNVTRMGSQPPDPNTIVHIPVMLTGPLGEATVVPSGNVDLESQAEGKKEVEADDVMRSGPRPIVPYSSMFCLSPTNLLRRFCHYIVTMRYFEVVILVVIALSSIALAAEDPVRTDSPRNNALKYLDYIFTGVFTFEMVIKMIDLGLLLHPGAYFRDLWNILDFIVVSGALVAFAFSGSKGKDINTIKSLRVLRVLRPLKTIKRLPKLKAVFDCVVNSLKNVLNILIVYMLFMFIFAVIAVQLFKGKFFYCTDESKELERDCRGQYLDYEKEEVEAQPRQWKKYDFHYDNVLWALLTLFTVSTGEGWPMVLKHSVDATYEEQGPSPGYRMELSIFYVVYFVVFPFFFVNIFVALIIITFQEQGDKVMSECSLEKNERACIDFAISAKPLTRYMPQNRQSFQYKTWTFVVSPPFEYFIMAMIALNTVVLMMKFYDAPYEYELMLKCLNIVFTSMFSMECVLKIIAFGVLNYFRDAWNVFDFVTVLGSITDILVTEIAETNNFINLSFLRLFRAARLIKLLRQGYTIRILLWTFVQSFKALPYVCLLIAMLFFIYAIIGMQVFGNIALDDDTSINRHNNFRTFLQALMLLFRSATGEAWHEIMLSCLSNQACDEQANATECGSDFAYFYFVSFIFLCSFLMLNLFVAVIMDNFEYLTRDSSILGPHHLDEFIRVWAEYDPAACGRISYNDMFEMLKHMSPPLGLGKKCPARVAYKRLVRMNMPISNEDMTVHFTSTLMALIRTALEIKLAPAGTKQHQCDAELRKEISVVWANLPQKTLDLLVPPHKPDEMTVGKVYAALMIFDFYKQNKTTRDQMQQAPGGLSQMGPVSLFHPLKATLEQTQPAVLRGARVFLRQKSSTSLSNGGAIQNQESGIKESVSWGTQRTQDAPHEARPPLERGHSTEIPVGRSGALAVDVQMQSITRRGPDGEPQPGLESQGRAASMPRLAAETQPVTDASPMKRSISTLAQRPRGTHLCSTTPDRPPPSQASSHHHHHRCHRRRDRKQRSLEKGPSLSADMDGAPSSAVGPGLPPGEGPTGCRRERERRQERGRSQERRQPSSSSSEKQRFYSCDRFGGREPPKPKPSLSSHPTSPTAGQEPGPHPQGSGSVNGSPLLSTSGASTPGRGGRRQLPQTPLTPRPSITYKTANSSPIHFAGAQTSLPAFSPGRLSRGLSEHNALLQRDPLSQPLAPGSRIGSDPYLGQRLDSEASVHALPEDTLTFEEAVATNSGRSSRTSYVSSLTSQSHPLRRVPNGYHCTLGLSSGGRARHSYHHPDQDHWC
T1 sequence (P54289 25-956 partner limits assumed): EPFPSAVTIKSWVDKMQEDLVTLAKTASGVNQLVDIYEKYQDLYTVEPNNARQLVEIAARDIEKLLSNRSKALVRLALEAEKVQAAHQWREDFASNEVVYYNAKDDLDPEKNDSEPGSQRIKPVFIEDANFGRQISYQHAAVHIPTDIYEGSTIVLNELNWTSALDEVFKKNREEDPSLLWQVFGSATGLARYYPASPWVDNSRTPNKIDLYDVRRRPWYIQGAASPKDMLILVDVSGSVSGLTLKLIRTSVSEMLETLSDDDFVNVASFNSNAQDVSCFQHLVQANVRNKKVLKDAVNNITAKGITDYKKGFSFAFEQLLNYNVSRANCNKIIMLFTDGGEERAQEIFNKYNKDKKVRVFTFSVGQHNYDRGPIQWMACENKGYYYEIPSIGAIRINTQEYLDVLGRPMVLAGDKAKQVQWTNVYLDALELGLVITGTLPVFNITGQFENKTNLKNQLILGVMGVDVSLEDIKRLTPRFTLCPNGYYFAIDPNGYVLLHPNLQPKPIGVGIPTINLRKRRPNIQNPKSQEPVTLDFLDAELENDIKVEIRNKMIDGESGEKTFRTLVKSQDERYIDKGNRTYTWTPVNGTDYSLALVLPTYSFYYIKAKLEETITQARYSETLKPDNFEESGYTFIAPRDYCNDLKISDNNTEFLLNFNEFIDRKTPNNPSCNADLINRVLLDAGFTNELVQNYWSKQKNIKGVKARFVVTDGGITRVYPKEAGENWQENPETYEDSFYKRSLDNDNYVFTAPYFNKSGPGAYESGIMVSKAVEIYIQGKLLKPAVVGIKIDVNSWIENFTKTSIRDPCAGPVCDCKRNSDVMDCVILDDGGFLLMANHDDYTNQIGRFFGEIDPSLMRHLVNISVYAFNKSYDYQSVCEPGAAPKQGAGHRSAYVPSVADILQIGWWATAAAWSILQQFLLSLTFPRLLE
T1 sequence (P54289 957-1103 partner limits assumed): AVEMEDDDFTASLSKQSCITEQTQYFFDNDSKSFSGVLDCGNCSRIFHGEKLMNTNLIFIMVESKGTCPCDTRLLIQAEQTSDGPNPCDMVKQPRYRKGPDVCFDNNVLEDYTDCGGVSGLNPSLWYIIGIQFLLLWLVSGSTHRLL
T1 sequence (P54284 whole entry partner): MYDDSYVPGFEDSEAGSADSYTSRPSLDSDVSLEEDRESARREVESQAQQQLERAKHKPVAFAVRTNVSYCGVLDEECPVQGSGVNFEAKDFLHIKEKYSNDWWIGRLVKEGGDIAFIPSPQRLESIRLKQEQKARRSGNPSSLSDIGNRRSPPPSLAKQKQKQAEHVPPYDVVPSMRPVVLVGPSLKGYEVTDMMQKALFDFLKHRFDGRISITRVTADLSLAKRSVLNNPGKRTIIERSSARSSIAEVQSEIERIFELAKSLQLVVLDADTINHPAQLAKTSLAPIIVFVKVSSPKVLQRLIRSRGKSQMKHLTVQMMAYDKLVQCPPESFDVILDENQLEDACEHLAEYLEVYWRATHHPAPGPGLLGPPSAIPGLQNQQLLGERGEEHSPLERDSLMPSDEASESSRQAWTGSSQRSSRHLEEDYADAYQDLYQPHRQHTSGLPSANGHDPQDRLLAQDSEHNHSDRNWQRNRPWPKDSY

Compound | IC50 | Inhibition of Calcium Flux in IMR-32 Cells % Inhibition at 1 μM | further results
CCN(CC)C(=O)C1CCCN(C(=O)C(Cc2ccc(OCc3ccccc3)cc2)NC(=O)C(CC(C)C)NC(=O)N2CCCCCC2)C1 (stereo not shown) [Example 188, Azepane-1-carboxylic acid {1-[1-(4-benzyloxy-benzyl)-2-(3-diethylcarbamoyl-piperidin-1-yl)-2-oxo-ethylcarbamoyl]-3-methyl-butyl}-amide] | 780 nM | – | –
CC(C)C[C@H](NC(=O)N1CCCCCC1)C(=O)N[C@@H](Cc1ccc(OCc2ccccc2)cc1)C(=O)NC1CCNC1 (stereo partly drawn) [Example 258, [S-(R*,R*)]-Azepane-1-carboxylic acid {1-[2-(4-benzyloxy-phenyl)-1-(pyrrolidin-3-ylcarbamoyl)-ethylcarbamoyl]-3-methyl-butyl}-amide] | 3600 nM | – | –
CC(C)C[C@H](NS(=O)(=O)c1ccc(F)cc1)C(=O)N[C@@H](Cc1ccc(OCc2ccccc2)cc1)C(=O)OC(C)(C)C (relative stereo) [Example 104, [S-(R*,R*)]-3-(4-Benzyloxy-phenyl)-2-[2-(4-fluoro-benzenesulfonylamino)-4-methyl-pentanoylamino]-propionic acid tert-butyl ester] | – | 35% | –
COc1cccc(NC(=O)N[C@@H](CC(C)C)C(=O)N[C@@H](Cc2ccc(OCc3ccccc3)cc2)C(=O)OC(C)(C)C)c1 (relative stereo) [Example 57, [S-(R*,R*)]-3-(4-Benzyloxy-phenyl)-2-{2-[3-(3-methoxy-phenyl)-ureido]-4-methyl-pentanoylamino}-propionic acid tert-butyl ester] | – | 34% | Inhibition of Calcium Flux in IMR-32 Cells % Inhibition at 10 μM: 74%
CC(C)CC(NC(=O)N1CCCCCC1)C(=O)NC(Cc1ccc(OCc2ccccc2)cc1)C(=O)NC1CCCN(C)C1c1ccccc1 (stereo not shown) [Example 197, Azepane-1-carboxylic acid {1-[2-(4-benzyloxy-phenyl)-1-(1-methyl-2-phenyl-piperidin-3-ylcarbamoyl)-ethylcarbamoyl]-3-methyl-butyl}-amide] | 220 nM | – | –
CSc1ccc(NC(=O)N[C@@H](CC(C)C)C(=O)N[C@@H](Cc2ccc(OCc3ccccc3)cc2)C(=O)OC(C)(C)C)cc1 (relative stereo) [Example 64, [S-(R*,R*)]-3-(4-Benzyloxy-phenyl)-2-{4-methyl-2-[3-(4-methylsulfanyl-phenyl)-ureido]-pentanoylamino}-propionic acid tert-butyl ester] | – | 31% | –
CC(C)C[C@H](NC(=O)N1CCCCCC1)C(=O)N[C@@H](Cc1ccc(OCc2ccccc2)cc1)C(=O)Nc1nccs1 [Example 207, [S-(R*,R*)]-Azepane-1-carboxylic acid {1-[2-(4-benzyloxy-phenyl)-1-(thiazol-2-ylcarbamoyl)-ethylcarbamoyl]-3-methyl-butyl}-amide] | 6200 nM | – | inhibition at 1 µM: 21%; inhibition at 10 µM: 59%
CC(C)C[C@H](NC(=O)Cc1cccs1)C(=O)N[C@@H](Cc1ccc(OCc2ccccc2)cc1)C(=O)OC(C)(C)C (relative stereo) [Example 122, [S-(R*,R*)]-3-(4-Benzyloxy-phenyl)-2-[4-methyl-2-(2-thiophen-2-yl-acetylamino)pentanoylamino]-propionic acid tert-butyl ester] | – | – | Inhibition of Calcium Flux in IMR-32 Cells % Inhibition at 10 μM: 84%
CC(C)CC(NC(=O)N1CCCCCC1)C(=O)NC(Cc1ccc(OCc2ccccc2)cc1)C(=O)NCC(O)c1ccccc1 (stereo not shown) [Example 190, Azepane-1-carboxylic acid {1-[2-(4-benzyloxy-phenyl)-1-(2-hydroxy-2phenyl-ethylcarbamoyl)-ethylcarbamoyl]-3-methyl-butyl}-amide] | 790 nM | – | –
CC(C)C[C@H](NC(=O)Nc1ccc(F)cc1F)C(=O)N[C@@H](Cc1ccc(OCc2ccccc2)cc1)C(=O)OC(C)(C)C (relative stereo) [Example 69, [S-(R*,R*)]-3-(4-Benzyloxy-phenyl)-2-{2-[3-(2,4-difluoro-phenyl)-ureido]-4-methyl-pentanoylamino}-propionic acid tert-butyl ester] | – | 31% | –
COc1ccc(C(=O)N[C@@H](CC(C)C)C(=O)N[C@@H](Cc2ccc(OCc3ccccc3)cc2)C(=O)OC(C)(C)C)cc1OC (relative stereo) [Example 100, [S-(R*,R*)]-3-(4-Benzyloxy-phenyl)-2-[2-(3,4-dimethoxy-benzoylamino)-4-methyl-pentanoylamino]-propionic acid tert-butyl ester] | – | 18% | –
CC(C)C[C@H](NC(=O)c1ccno1)C(=O)N[C@@H](Cc1ccc(OCc2ccccc2)cc1)C(=O)OC(C)(C)C (relative stereo) [Example 123, [S-(R*,R*)]-3-(4-Benzyloxy-phenyl)-2-{2-1(isoxazole-5-carbonyl)-amino]-4-methyl-pentanoylamino}-propionic acid tert-butyl ester] | – | – | Inhibition of Calcium Flux in IMR-32 Cells % Inhibition at 10 μM: 67%
CCC(C)NC(=O)C(Cc1ccc(OCc2ccccc2)cc1)NC(=O)C(CC(C)C)NC(=O)N1CCCCCC1 (stereo not shown) [Example 243, Azepane-1-carboxylic acid {1-[2-(4-benzyloxy-phenyl)-1-sec-butylcarbamoyl-ethylcarbamoyl]-3-methyl-butyl}-amide] | – | – | inhibition at 1 µM: 48%; inhibition at 10 µM: 89%
CC(C)C[C@H](NC(=O)N1CCCCCC1)C(=O)N[C@@H](Cc1ccc(OCc2ccccc2)cc1)C(=O)NCCN1CCCC1 [Example 181, [S-(R*,R*)]-Azepane-1-carboxylic acid {1-[2-(4-benzyloxy-phenyl)-1-(2-pyrrolidin-1-ylethylcarbamoyl)-ethylcarbamoyl]3-methyl-butyl}-amide] | 2800 nM | – | –
CC(C)C[C@H](NC(=O)N1CCCCCC1)C(=O)N[C@@H](Cc1ccc(OCc2ccccc2)cc1)C(=O)NCc1ccco1 (relative stereo) [Example 220, [S-(R*,R*)]-Azepane-1-carboxylic acid (1-{2-(4-benzyloxy-phenyl)-1-[(furan-2-ylmethyl)-carbamoyl]-ethylcarbamoyl}-3-methyl-butyl)-amide] | – | 40% | Inhibition of Calcium Flux in IMR-32 Cells % Inhibition at 10 μM: 88%
CC(C)C[C@H](NC(=O)c1ccc(C(C)(C)C)cc1)C(=O)N[C@@H](Cc1ccc(OCc2ccccc2)cc1)C(=O)OC(C)(C)C (relative stereo) [Example 93, [S-(R*,R*)]-3-(4-Benzyloxy-phenyl)-2-[2-(4-tert-butyl-benzoylamino)-4-methyl-pentanoylamino]-propionic acid tert-butyl ester] | – | 17% | –
CSCCC(CO)NC(=O)[C@H](Cc1ccc(OCc2ccccc2)cc1)NC(=O)C(CC(C)C)NC(=O)N1CCCCCC1 (stereo in doubt) [Example 238, Azepane-1-carboxylic acid {(R)-1-[(S)-2-(4-benzyloxy-phenyl)-(S)-1-(1-hydroxymethyl-3-methylsulfanyl-propylcarbamoyl)-ethylcarbamoyl]-3-methyl-butyl}-amide] | 740 nM | – | inhibition at 1 µM: 62%; inhibition at 10 µM: 95%
CC(C)C[C@H](NC(=O)N1CCCCCC1)C(=O)NC(Cc1ccc(OCc2ccccc2)cc1)C(=O)N[C@@H]1CN2CCC1CC2 (stereo partly drawn) [Example 182, Azepane-1-carboxylic acid {(S)-1-[-1-[(S)-1-aza-bicyclo [2.2.2]-3-ylcarbamoyl]-2-(4-benzyloxy-phenyl)-ethylcarbamoyl]-3-methyl-butyl}-amide] | 7700 nM | – | –
